# Reference: patent EP0388245A1, “Agent resistant to AIDS virus” (TERUMO KABUSHIKI KAISHA, priority 1989, dated 1990)
# Experiments:
# [1] = test system: HTLV-IIIb (one kind of HIV); assay: Test for activity to inhibit hyperplasia of HIV: suppression of cytopathic effect (CPE), live cells counted by trypan blue; assay type: cell-based, human immunodeficiency virus (HIV); details: for MT-4/HIV (live cells): HTLV-IIIb infected MT-4 cells, MOI 0.02, 4 days
# Procedure: (§1) A test for the activity to inhibit hyperplasia of HIV was conducted in accordance with the method proposed by Harada et al [Science, 229, 563-5663 (1985)]. Testing conditions: Cell: […] (HTLV-I-carrying cell line) Virus: THLV-IIIb (one kind of HIV); HTLV-IIIb was prepared from the supernatant of the culture broth of MOLT-4/HIV, a HIV-producing cell. The potency of the virus was 1 x 10⁶ TCID 50/ml. Culture medium: RPMI-1640 (containing 10% bovine fetal serum, 100 IV/penicilin, and 100 µg/ml streptomycin) Culture conditions: In each of the wells of a 24-well culture tray, […] cells (6.6 x 10⁵/ml, 0.3 ml) and HTLV-II Ib ([…], 0.2 ml) were placed [multiplicity of infection (MOI = 0.02)] and cultured for 1 hour. After adsorption of virus, Compound A diluted with culture medium (0.5 ml) was added to a total volume of 1.0 ml and cultured at 37°C for 4 days. Cells not infected by HTLV-IIIb dilution aqueous solution and cells not treated with Compound A were used as controls.
# (§2) Virally infected cells and uninfected cells were cultured for 4 days. After the culture, the live cells were counted by the trypan blue tinting method. The property of cytopathic effect suppression was evaluated by comparison of the number of live cells in the culture broths of virally infected cells and uninfected cells both obtained in the absence of Compound A.
# MT-4 = assay: Toxicity to uninfected MT-4 cells, live cell count by trypan blue after 4 days culture; assay type: cell-based; details: for MT-4 (live cells) / Toxicity (% control): uninfected MT-4 cells; for MT-4 (live cells): 4 days
# Procedure: as §1, §2
# [2] = test system: Reverse transcriptase originating in avain myeloblastic virum; assay: Test for activity to inhibit reverse transcriptase ([³H] thymidine triphosphate incorporation); assay type: biochemical; parameters: Radio activity #1 / Radio activity #2: unit not given here; details: for % control: inhibition of reverse transcriptase
# Procedure: This test was carried out by the method described below.
# This test solution was prepared by dissolving Compound A in a concentration of 5 mg/ml in dimethyl sulfoxide and diluting the resultant solution with distilled water.
# Fifty (50) µl of the measuring solution and 50 µl of the test solution were mixed and left reacting at 37°C for one hour. The reaction mixture was cooled with ice to stop the reaction. Then 50 µl of […] by a disk of DEAE cellulose paper 2.4 cm in diameter. The wet paper was washed three times with an aqueous 5% […] (with 12 molecules of crystal water) and once each with distilled water and ethanol. The radioactivity was determined with a liquid scintillation counter.
substance,measurement,setting,value
K₇PW₁₀Ti₂O₄₀·6H₂O [Compound A],activity to control CPE,"[1]; 25 to 100 ug/ml, MT-4/HIV",excelled in activity to control CPE
same,MT-4/HIV (live cells),[1]; Compound A 25 µg/ml,10.0 x 10⁵ cells/ml
same,MT-4/HIV (live cells),[1]; Compound A 50 µg/ml,9.8 x 10⁵ cells/ml
same,MT-4/HIV (live cells),[1]; Compound A 100 µg/ml,8.5 x 10⁵ cells/ml
same,MT-4/HIV (live cells),[1]; Compound A 200 µg/ml,4.8 x 10⁵ cells/ml
same,MT-4/HIV (live cells),[1]; Compound A 400 µg/ml,4.7 x 10⁵ cells/ml
same,% CPE Control,"[1]; MT-4/HIV, Compound A 25 µg/ml",90%
same,% CPE Control,"[1]; MT-4/HIV, Compound A 50 µg/ml",88%
same,% CPE Control,"[1]; MT-4/HIV, Compound A 100 µg/ml",71%
same,% CPE Control,"[1]; MT-4/HIV, Compound A 200 µg/ml",25%
same,% CPE Control,"[1]; MT-4/HIV, Compound A 400 µg/ml",47%
same,toxicity,"MT-4; 25 to 100 ug/ml, MT-4",only inconspicuous toxicity
same,MT-4 (live cells),MT-4; Compound A 25 µg/ml,11.8 x 10⁵ cells/ml
same,MT-4 (live cells),MT-4; Compound A 50 µg/ml,9.8 x 10⁵ cells/ml
same,MT-4 (live cells),MT-4; Compound A 100 µg/ml,10.1 x 10⁵ cells/ml
same,MT-4 (live cells),MT-4; Compound A 200 µg/ml,8.5 x 10⁵ cells/ml
same,MT-4 (live cells),MT-4; Compound A 400 µg/ml,6.0 x 10⁵ cells/ml
same,Toxicity (% control),MT-4; Compound A 25 µg/ml,0 % control
same,Toxicity (% control),MT-4; Compound A 50 µg/ml,1 % control
same,Toxicity (% control),MT-4; Compound A 100 µg/ml,0 % control
same,Toxicity (% control),MT-4; Compound A 200 µg/ml,21 % control
same,Toxicity (% control),MT-4; Compound A 400 µg/ml,44 % control
same,Average value (CPM),"[2]; Concentration 12,500 µg/ml",3906.0 CPM
same,Radio activity #1,"[2]; Concentration 12,500 µg/ml",3666
same,Radio activity #2,"[2]; Concentration 12,500 µg/ml",4146
same,% control,"[2]; Concentration 12,500 µg/ml",50.8%
same,Average value (CPM),"[2]; Concentration 25,000 µg/ml",3878.0 CPM
same,Radio activity #1,"[2]; Concentration 25,000 µg/ml",3143
same,Radio activity #2,"[2]; Concentration 25,000 µg/ml",4613
same,% control,"[2]; Concentration 25,000 µg/ml",51.2%
same,Average value (CPM),"[2]; Concentration 50,000 µg/ml",2450.5 CPM
same,Radio activity #1,"[2]; Concentration 50,000 µg/ml",1828
same,Radio activity #2,"[2]; Concentration 50,000 µg/ml",3079
same,% control,"[2]; Concentration 50,000 µg/ml",71.1%
same,Average value (CPM),"[2]; Concentration 100,000 µg/ml",1391.0 CPM
same,Radio activity #1,"[2]; Concentration 100,000 µg/ml",1231
same,Radio activity #2,"[2]; Concentration 100,000 µg/ml",1391
same,% control,"[2]; Concentration 100,000 µg/ml",86.0%
same,Average value (CPM),"[2]; Concentration 200,000 µg/ml",967.0 CPM
same,Radio activity #1,"[2]; Concentration 200,000 µg/ml",970
same,Radio activity #2,"[2]; Concentration 200,000 µg/ml",930
same,% control,"[2]; Concentration 200,000 µg/ml",92.0%
same,activity to inhibit reverse transcriptase,[2]; summary in words of Table 2,manifested an activity to inhibit reverse transcriptase even in a small application rate
